Laboratory results taken from ChEMBL document CHEMBL1201862, “PubChem BioAssay data set” (2004).
Where “and” joins values, the source holds several entries; their conditions need not be identical. Equal entries are not always repeated.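 Protocol summary: plate cells (96-well), add compound at 5 concentrations, incubate 48 h, interpolate endpoints linearly. Abbreviation: GI50, concentration required for 50% inhibition of growth.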 Calls of active or inactive are those of the source. Rule as the data show it: active = GI50 up to about 1.1 µM and inactive = higher.

Tests used:
Test in all cases: growth of human tumour cells (NCI), 48 h
NCI-H23 = system: NCI-H23
COLO 205 = system: COLO 205
EKVX = system: EKVX
NCI-H460 = system: NCI-H460
RXF 393 = system: RXF 393
OVCAR-8 = system: OVCAR-8
MOLT-4 = system: MOLT-4
HOP-92 = system: HOP-92
HCT-116 = system: HCT-116
786-0 = system: 786-0
SF-268 = system: SF-268
MDA-N = system: MDA-N
HCC 2998 = system: HCC 2998
M14 = system: M14
HOP-62 = system: HOP-62
Malme-3M = system: Malme-3M
OVCAR-3 = system: OVCAR-3
T47D = system: T47D
A549 = system: A549
CCRF-CEM = system: CCRF-CEM
K562 = system: K562
SF-295 = system: SF-295
SW-620 = system: SW-620
SK-MEL-5 = system: SK-MEL-5
NCI/ADR-RES = system: NCI/ADR-RES
ACHN = system: ACHN
TK-10 = system: TK-10
IGROV-1 = system: IGROV-1
SK-MEL-28 = system: SK-MEL-28
U-251 = system: U-251
SN12C = system: SN12C
DU-145 = system: DU-145
SF-539 = system: SF-539
OVCAR-4 = system: OVCAR-4
HT-29 = system: HT-29
KM12 = system: KM12
OVCAR-5 = system: OVCAR-5
UACC-62 = system: UACC-62
CAKI-1 = system: CAKI-1
NCI-H522 = system: NCI-H522
LOX IMVI = system: LOX IMVI
PC-3 = system: PC-3
SK-OV-3 = system: SK-OV-3
HCT-15 = system: HCT-15
UACC-257 = system: UACC-257
MDA-MB-435 = system: MDA-MB-435
RPMI-8226 = system: RPMI-8226
MDA-MB-231 = system: MDA-MB-231
SNB-75 = system: SNB-75
SR = system: SR
MCF7 = system: MCF7
NCI-H226 = system: NCI-H226
SK-MEL-2 = system: SK-MEL-2
SNB-19 = system: SNB-19
HL-60 = system: HL-60
A498 = system: A498
UO-31 = system: UO-31

Question: Which results are given for Clc1ccc2[nH]c(CC3CCCC3)nc2c1?
Answer: GI50 (NCI-H23): 15.1 µM (inactive); GI50 (COLO 205): 14.2 µM (inactive); GI50 (EKVX): 17.5 µM (inactive); GI50 (NCI-H460): 17.6 µM (inactive); GI50 (RXF 393): 14.7 µM (inactive); GI50 (OVCAR-8): 25.6 µM (inactive); GI50 (MOLT-4): 11 µM (inactive); GI50 (HOP-92): 12.9 µM (inactive); GI50 (HCT-116): 16.1 µM (inactive); GI50 (786-0): 16.6 µM (inactive); GI50 (SF-268): 19.3 µM (inactive); GI50 (MDA-N): 10 µM (inactive); GI50 (HCC 2998): 20 µM (inactive); GI50 (M14): 18.3 µM (inactive); GI50 (HOP-62): 15.6 µM (inactive); GI50 (Malme-3M): 25.5 µM (inactive); GI50 (OVCAR-3): 6 µM (inactive); GI50 (T47D): 17.9 µM (inactive); GI50 (A549): 21.7 µM (inactive); GI50 (CCRF-CEM): 26.2 µM (inactive); GI50 (K562): 3.14 µM (inactive); GI50 (SF-295): 16.1 µM (inactive); GI50 (SW-620): 22.4 µM (inactive); GI50 (SK-MEL-5): 11 µM (inactive); GI50 (NCI/ADR-RES): 13.8 µM (inactive); GI50 (ACHN): 17.1 µM (inactive); GI50 (TK-10): 28.5 µM (inactive); GI50 (IGROV-1): 4.29 µM (inactive); GI50 (SK-MEL-28): 22.8 µM (inactive); GI50 (U-251): 17.6 µM (inactive); GI50 (SN12C): 16.9 µM (inactive); GI50 (DU-145): 20.9 µM (inactive); GI50 (SF-539): 21.4 µM (inactive); GI50 (OVCAR-4): 14.9 µM (inactive); GI50 (HT-29): 12.2 µM (inactive); GI50 (KM12): 14.5 µM (inactive); GI50 (OVCAR-5): 24.5 µM (inactive); GI50 (UACC-62): 15.8 µM (inactive); GI50 (CAKI-1): 3.31 µM (inactive); GI50 (NCI-H522): 5.74 µM (inactive); GI50 (LOX IMVI): 15.8 µM (inactive); GI50 (PC-3): 20.1 µM (inactive); GI50 (SK-OV-3): 22.3 µM (inactive); GI50 (HCT-15): 6.87 µM; GI50 (UACC-257): 88.1 µM (inactive); GI50 (MDA-MB-435): 6.52 µM (inactive); GI50 (RPMI-8226): 12.1 µM (inactive); GI50 (MDA-MB-231): 17.7 µM (inactive); GI50 (SNB-75): 24.4 µM (inactive); GI50 (SR): 2.45 µM (inactive); GI50 (MCF7): 6.61 µM (inactive); GI50 (NCI-H226): 17.7 µM (inactive); GI50 (SK-MEL-2): 17.9 µM (inactive); GI50 (SNB-19): 23.4 µM (inactive)

Question: How did the GI50 (HL-60) turn out when O=C1C=C2C=CC3CC2(O1)C1CCCCN31 (stereo not drawn) was run?
Answer: 17.2 µM (inactive)

Question: And the GI50 (OVCAR-8)?
Answer: 17.3 µM (inactive) and 28.3 µM (inactive) and 19.1 µM (inactive)

Question: What about the GI50 (HOP-92) of the same molecule?
Answer: 12.7 µM (inactive) and 18.3 µM (inactive) and 22.8 µM (inactive)

Question: What about the GI50 (HCC 2998) of the same molecule?
Answer: 16.8 µM (inactive) and 20.3 µM (inactive) and 27.3 µM (inactive)

Question: And the GI50 (Malme-3M)?
Answer: 14.9 µM (inactive)

Question: And the GI50 (SF-295)?
Answer: 23.3 µM (inactive) and 35.3 µM (inactive) and 45.2 µM (inactive)

Question: And the GI50 (KM12)?
Answer: 19.2 µM (inactive) and 14.8 µM (inactive) and 12.5 µM (inactive)

Question: And the GI50 (PC-3)?
Answer: 21.5 µM (inactive) and 40.4 µM (inactive) and 25.1 µM (inactive)

Question: And the GI50 (SK-OV-3)?
Answer: 20.5 µM (inactive) and 33.7 µM (inactive) and 30.6 µM (inactive)

Question: And the GI50 (SK-MEL-2)?
Answer: 28.1 µM (inactive) and 16.8 µM (inactive) and 27.9 µM (inactive)

Question: And the GI50 (SNB-19)?
Answer: 28.3 µM (inactive) and 32.4 µM (inactive) and 18.7 µM (inactive)

Question: What does the source list for CSc1ccc(C(=C=C=C(c2ccc(SC)s2)c2ccc(SC)s2)c2ccc(SC)s2)s1?
Answer: GI50 (NCI-H23): > 10 µM (inactive); GI50 (COLO 205): > 10 µM (inactive); GI50 (EKVX): > 10 µM (inactive); GI50 (RXF 393): > 10 µM (inactive); GI50 (OVCAR-8): > 10 µM (inactive); GI50 (HOP-92): > 10 µM (inactive); GI50 (HCT-116): > 10 µM (inactive); GI50 (A498): > 10 µM (inactive); GI50 (SF-268): > 10 µM (inactive); GI50 (MDA-N): > 10 µM (inactive); GI50 (M14): > 10 µM (inactive); GI50 (OVCAR-3): > 10 µM (inactive); GI50 (A549): > 10 µM (inactive); GI50 (SF-295): > 10 µM (inactive); GI50 (SW-620): > 10 µM (inactive); GI50 (SK-MEL-5): > 10 µM (inactive); GI50 (NCI/ADR-RES): > 10 µM (inactive); GI50 (ACHN): > 10 µM (inactive); GI50 (TK-10): > 10 µM (inactive); GI50 (IGROV-1): > 10 µM (inactive); GI50 (SK-MEL-28): > 10 µM (inactive); GI50 (UO-31): > 10 µM (inactive); GI50 (U-251): > 10 µM (inactive); GI50 (SN12C): > 10 µM (inactive); GI50 (DU-145): > 10 µM (inactive); GI50 (SF-539): > 10 µM (inactive); GI50 (OVCAR-4): > 10 µM (inactive); GI50 (HT-29): > 10 µM (inactive); GI50 (KM12): > 10 µM (inactive); GI50 (OVCAR-5): > 10 µM (inactive); GI50 (CAKI-1): > 10 µM (inactive); GI50 (PC-3): > 10 µM (inactive); GI50 (HCT-15): > 10 µM; GI50 (MDA-MB-435): > 10 µM (inactive); GI50 (MDA-MB-231): > 10 µM (inactive); GI50 (SNB-75): > 10 µM (inactive); GI50 (NCI-H226): > 10 µM (inactive); GI50 (SNB-19): > 10 µM (inactive)
